From patent US12433865B2, “Compositions comprising PGI2-receptor agonists and processes for the preparation thereof” (Arena Pharmaceuticals, Inc., priority 2018, dated 2025)

Assay: Release (dissolution) profile of capsules, USP Apparatus 2 (paddle)
Assay type: physicochemical
Conditions: for Release rate (percentage of Compound 1 released over time): 0.04 mg capsule, Poloxamer 188:food grade GMS 50:50, T = 0 (pre-curing)
Excerpt: USP Apparatus 2 (Paddle Apparatus) is described, for example, in the United States Pharmacopeial Convention, Feb. 1, 2012, Chapter <711> (“Dissolution”), incorporated by reference herein in its entirety. See http://www.usp.org/sites/default/files/usp_pdf/EN/USPNF/revisions/m99470-gc_711.pdf. The assembly from Apparatus 1 is used, except that a paddle formed from a blade and a shaft is used as the stirring element. The shaft is positioned so that its axis is not more than 2 mm from the vertical axis of the vessel at any point and rotates smoothly without significant wobble that could affect the results. The vertical center line of the blade passes through the axis of the shaft so that the bottom of the blade is flush with the bottom of the shaft. A distance of 25±2 mm between the bottom of the blade and the inside bottom of the vessel is maintained during the test. The metallic or suitably inert, rigid blade and shaft comprise a single entity. A suitable two-part detachable design may be used provided the assembly remains firmly engaged during the test. The paddle blade and shaft may be coated with a suitable coating so as to make them inert. The dosage unit is allowed to sink to the bottom of the vessel before rotation of the blade is started. A small, loose piece of nonreactive material, such as not more than a few turns of wire helix, may be attached to dosage units that would otherwise float. Other validated sinker devices may be used.
Unless otherwise specified, the release profiles for capsules were measured using USP Apparatus 2 (paddle).
All release profiles disclosed in Tables 3c-3p were measured with USP Apparatus 2 (paddle) at 50 rpm in 500 mL of aqueous sodium phosphate at a concentration of 0.05 M (pH=6.8). The values in a given table relate to capsules obtained from the same batch. Values shown represent mean values over a number of dissolution tests (“n” in each table) in each case.

Compound: O=C(O)COC[C@H]1CC[C@H](COC(=O)N(c2ccccc2)c2ccc(Cl)cc2)CC1 [Compound 1, 2-(((1r,4r)-4-(((4-chlorophenyl)(phenyl)carbamoyloxy)methyl)cyclohexyl)methoxy)acetic acid]
- Release rate (percentage of Compound 1 released over time) (480 min): 72.7%
- Release rate (percentage of Compound 1 released over time) (600 min): 79.8%
- Release rate (percentage of Compound 1 released over time) (720 min): 83.1%
- Release rate (percentage of Compound 1 released over time) (735 min): 84.6%
- change of release rate after storage (0.04 mg of Compound 1 in Gelucire 50/13, storage at 40° C. and 75% RH for two weeks (FIG. 5)): rapid increase
- release rate relative to immediate-release composition (0.5 mg Compound 1, Poloxamer 188:food grade GMS 70:30, 50:50 and 30:70 (FIGS. 8-10)): slower rate
- release rate after storage (0.5 mg Compound 1, Poloxamer 188:food grade GMS 70:30, 50:50 and 30:70, storage at 40° C. and 75% RH for about one month (FIGS. 8-10)): substantially the same
- mean value (n = 6) of % of Compound 1 released (Table 3c: size 4 capsule, 0.03 mg Compound 1, Poloxamer 188:food grade GMS 70:30, 20 min): 14.8%
- mean value (n = 6) of % of Compound 1 released (Table 3c: size 4 capsule, 0.03 mg Compound 1, Poloxamer 188:food grade GMS 70:30, 30 min): 36.1%
- mean value (n = 6) of % of Compound 1 released (Table 3c: size 4 capsule, 0.03 mg Compound 1, Poloxamer 188:food grade GMS 70:30, 45 min): 65.4%
- mean value (n = 6) of % of Compound 1 released (Table 3c: size 4 capsule, 0.03 mg Compound 1, Poloxamer 188:food grade GMS 70:30, 60 min): 83.8%
- mean value (n = 6) of % of Compound 1 released (Table 3c: size 4 capsule, 0.03 mg Compound 1, Poloxamer 188:food grade GMS 70:30, 90 min): 95.5%
- mean value (n = 6) of % of Compound 1 released (Table 3c: size 4 capsule, 0.03 mg Compound 1, Poloxamer 188:food grade GMS 70:30, 120 min): 98.4%
- mean value (n = 4) of % of Compound 1 released (Table 3e: size 4 capsule, 0.5 mg Compound 1, Poloxamer 188:food grade GMS 70:30, 30 min): 17.7%
- mean value (n = 4) of % of Compound 1 released (Table 3e: size 4 capsule, 0.5 mg Compound 1, Poloxamer 188:food grade GMS 70:30, 60 min): 56.9%
- mean value (n = 4) of % of Compound 1 released (Table 3e: size 4 capsule, 0.5 mg Compound 1, Poloxamer 188:food grade GMS 70:30, 120 min): 95.1%
- mean value (n = 4) of % of Compound 1 released (Table 3f: size 4 capsule, 0.5 mg Compound 1, Poloxamer 188:food grade GMS 70:30, 30 min): 19.3%
- mean value (n = 4) of % of Compound 1 released (Table 3f: size 4 capsule, 0.5 mg Compound 1, Poloxamer 188:food grade GMS 70:30, 60 min): 61.9%
- mean value (n = 4) of % of Compound 1 released (Table 3f: size 4 capsule, 0.5 mg Compound 1, Poloxamer 188:food grade GMS 70:30, 120 min): 98.1%
- mean value (n = 4) of % of Compound 1 released (Table 3g-1: Storage Time = 0, size 4 capsule, 0.5 mg Compound 1, Poloxamer 188:food grade GMS 70:30, 30 min): 33.0%
- mean value (n = 4) of % of Compound 1 released (Table 3g-1: Storage Time = 0, size 4 capsule, 0.5 mg Compound 1, Poloxamer 188:food grade GMS 70:30, 45 min): 64.2%
- mean value (n = 4) of % of Compound 1 released (Table 3g-1: Storage Time = 0, size 4 capsule, 0.5 mg Compound 1, Poloxamer 188:food grade GMS 70:30, 60 min): 86.0%
- mean value (n = 4) of % of Compound 1 released (Table 3g-2 (Storage Time = 2 weeks), first line, size 4 capsule, 0.5 mg Compound 1, Poloxamer 188:food grade GMS 70:30, 30 min): 33.0%
- mean value (n = 4) of % of Compound 1 released (Table 3g-2 (Storage Time = 2 weeks), first line, size 4 capsule, 0.5 mg Compound 1, Poloxamer 188:food grade GMS 70:30, 45 min): 64.2%
- mean value (n = 4) of % of Compound 1 released (Table 3g-2 (Storage Time = 2 weeks), first line, size 4 capsule, 0.5 mg Compound 1, Poloxamer 188:food grade GMS 70:30, 60 min): 86.0%
- mean value (n = 4) of % of Compound 1 released (Table 3g-2 (Storage Time = 2 weeks), second line, size 4 capsule, 0.5 mg Compound 1, Poloxamer 188:food grade GMS 70:30, 30 min): 34.8%
- mean value (n = 4) of % of Compound 1 released (Table 3g-2 (Storage Time = 2 weeks), second line, size 4 capsule, 0.5 mg Compound 1, Poloxamer 188:food grade GMS 70:30, 45 min): 67.9%
- mean value (n = 4) of % of Compound 1 released (Table 3g-2 (Storage Time = 2 weeks), second line, size 4 capsule, 0.5 mg Compound 1, Poloxamer 188:food grade GMS 70:30, 60 min): 89.4%
- mean value (n = 4) of % of Compound 1 released (Table 3i: size 4 capsule, 0.5 mg Compound 1, Poloxamer 188:food grade GMS 50:50, 30 min): 7.5%
- mean value (n = 4) of % of Compound 1 released (Table 3i: size 4 capsule, 0.5 mg Compound 1, Poloxamer 188:food grade GMS 50:50, 60 min): 21.1%
- mean value (n = 4) of % of Compound 1 released (Table 3i: size 4 capsule, 0.5 mg Compound 1, Poloxamer 188:food grade GMS 50:50, 120 min): 41.1%
- mean value (n = 4) of % of Compound 1 released (Table 3i: size 4 capsule, 0.5 mg Compound 1, Poloxamer 188:food grade GMS 50:50, 180 min): 58.9%
- mean value (n = 4) of % of Compound 1 released (Table 3i: size 4 capsule, 0.5 mg Compound 1, Poloxamer 188:food grade GMS 50:50, 240 min): 75.3%
- mean value (n = 4) of % of Compound 1 released (Table 3i: size 4 capsule, 0.5 mg Compound 1, Poloxamer 188:food grade GMS 50:50, 360 min): 94.3%
- mean value (n = 4) of % of Compound 1 released (Table 3i: size 4 capsule, 0.5 mg Compound 1, Poloxamer 188:food grade GMS 50:50, 480 min): 100.0%
- mean value (n = 4) of % of Compound 1 released (Table 3j: size 4 capsule, 0.5 mg Compound 1, Poloxamer 188:food grade GMS 50:50, 30 min): 7.8%
- mean value (n = 4) of % of Compound 1 released (Table 3j: size 4 capsule, 0.5 mg Compound 1, Poloxamer 188:food grade GMS 50:50, 60 min): 19.5%
- mean value (n = 4) of % of Compound 1 released (Table 3j: size 4 capsule, 0.5 mg Compound 1, Poloxamer 188:food grade GMS 50:50, 120 min): 38.6%
- mean value (n = 4) of % of Compound 1 released (Table 3j: size 4 capsule, 0.5 mg Compound 1, Poloxamer 188:food grade GMS 50:50, 180 min): 56.8%
- mean value (n = 4) of % of Compound 1 released (Table 3j: size 4 capsule, 0.5 mg Compound 1, Poloxamer 188:food grade GMS 50:50, 240 min): 72.9%
- mean value (n = 4) of % of Compound 1 released (Table 3j: size 4 capsule, 0.5 mg Compound 1, Poloxamer 188:food grade GMS 50:50, 360 min): 90.7%
- mean value (n = 4) of % of Compound 1 released (Table 3j: size 4 capsule, 0.5 mg Compound 1, Poloxamer 188:food grade GMS 50:50, 480 min): 97.4%
- mean value (n = 6) of % of Compound 1 released (Table 3k: size 4 capsule, 0.03 mg Compound 1, Poloxamer 188:food grade GMS 50:50, 30 min): 8.5%
- mean value (n = 6) of % of Compound 1 released (Table 3k: size 4 capsule, 0.03 mg Compound 1, Poloxamer 188:food grade GMS 50:50, 60 min): 18.0%
- mean value (n = 6) of % of Compound 1 released (Table 3k: size 4 capsule, 0.03 mg Compound 1, Poloxamer 188:food grade GMS 50:50, 120 min): 39.3%
- mean value (n = 6) of % of Compound 1 released (Table 3k: size 4 capsule, 0.03 mg Compound 1, Poloxamer 188:food grade GMS 50:50, 180 min): 58.6%
- mean value (n = 6) of % of Compound 1 released (Table 3k: size 4 capsule, 0.03 mg Compound 1, Poloxamer 188:food grade GMS 50:50, 240 min): 75.2%
